The text below walks through data of patent US20110152166A1, “METHOD OF MODULATION OF PROTEIN PHOSPHORYLATION-DEPENDENT CONFORMATIONAL TRANSITIONS WITH LOW MOLECULAR WEIGHT COMPOUNDS” (priority 2006, published 2011).

Where a chain is given by its changes, count along the chain named. Read-outs that look alike come from different tables or passages of the source. Square brackets hold non-standard residues; d marks the D form. Ends that are not written are not given here. pS = N[C@@H](COP(=O)(O)O)C(=O)O

For experiment [1], the target named is T1, GST-PDK1 [Gln150Ala] (Homo sapiens, UniProt O15530, Q150A).
T1 construct: different protein constructs, comprising the full length protein or the catalytic domain alone; made in house; host or cells: HEK293 cells (pEBG-2T-PDK1 mutant)
T1 sequence (O15530 1-556 Q150A): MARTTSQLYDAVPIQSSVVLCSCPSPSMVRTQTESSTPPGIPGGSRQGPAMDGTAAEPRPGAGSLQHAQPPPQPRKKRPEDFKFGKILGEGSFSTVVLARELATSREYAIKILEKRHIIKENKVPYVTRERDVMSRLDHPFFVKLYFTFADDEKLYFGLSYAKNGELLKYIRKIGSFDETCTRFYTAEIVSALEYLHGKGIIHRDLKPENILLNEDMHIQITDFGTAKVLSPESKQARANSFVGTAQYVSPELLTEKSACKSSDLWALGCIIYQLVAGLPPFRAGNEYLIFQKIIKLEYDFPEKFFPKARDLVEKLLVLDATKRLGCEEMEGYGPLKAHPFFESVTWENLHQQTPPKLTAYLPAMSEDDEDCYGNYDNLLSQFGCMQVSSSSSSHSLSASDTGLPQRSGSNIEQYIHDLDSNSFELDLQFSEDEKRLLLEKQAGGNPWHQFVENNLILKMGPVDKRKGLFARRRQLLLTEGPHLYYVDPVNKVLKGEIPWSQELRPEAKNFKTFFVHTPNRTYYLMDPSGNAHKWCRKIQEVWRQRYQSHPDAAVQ
Nature of the experiment: PDK1 activity assay with T308tide. Type of experiment: biochemical. The note with it: for AC50 / Max. activity: GST-PDK1 [Gln150Ala]; for activation of PDK1 mutant (in words): PDK1[Gln150Ala], 20 μM. Here is the method:
(§1) Protein kinase activity tests were performed essentially as previously described (Balendran et al., 2000; Biondi et al., 2000; Biondi et al., 2001). Substrates used were either MBP (for PKCζ or polypeptides (Crosstide for PKB, S6K, SGK and PRK2; T308tide for PDK1, and Kemptide for PKA). PKA (Sigma) was measured in the presence of 100 μM cAMP. Alternatively, assays were performed in a 96 well format, aliquots spotted on p81 phosphocellulose papers (Whatmann), washed in 0.01% phosphoric acid, dried, and then exposed and analysed using Phospholmager technology (Storm, Molecular Dynamics). Activity measurements were performed in duplicates with less than 10% difference between duplicate pairs. Experiments were repeated at least twice, although most of the experiments were repeated multiple times, with similar results.
(§2) PDK1 activity assay was performed in a 20 μl mix containing 50 mM Tris-HCl pH 7.5, 0.05 mg/ml BSA, 0.1% β-mercaptoethanol, 10 mM MgCl2, 100 μM [γ^32P]ATP (5-50 cpm/pmol), 0.003% Brij, 150 ng PDK1, and T308tide (from 0.05 to 1 mM). PDK1 specific activity was approximately 5 U/mg (when measured at 1 mM T308tide). The effect of small compounds on PDK1 was repeated with proteins from different purification batches and with different protein constructs, comprising the full length protein or the catalytic domain alone, with similar results. […] This variability may be due to the PIFtide/compound-stimulated autophosphorylation of the activation loop in certain preparations having less than a 1:1 molar phosphorylation stoichiometry at this site.
(§3) PDK1 activity was measured at room temperature using a polypeptide substrate derived from the activation loop phosphorylation site of PKB, T308tide (0.1 mM). […] GST-PDK1 wt was purified in numerous occasions and the maximal activation level of different batches varied between 3 and 8 fold activation with PIFtide or compound 1. Variations in the basal activity and fold activation were also observed in mutants. Therefore, comparisons in the maximal level of activation between mutants should be performed with care. The data shown are from an experiment where PIFtide concentrations were tested between 50 nM and 20 µM and compound 1 concentrations were between 5 μM and 200 μM, in triplicate. AC50 and max. activity were estimated by fitting the data to a hyperbola using Kaleidagraph software. One Unit of PDK1 activity was defined as the amount required to catalyse the phosphorylation of 1 nmol of the T308tide in 1 min.

The target of experiment [2] is T2, GST-PDK1 [Thr148Val] (Homo sapiens, UniProt O15530, T148V).
T2 construct: different protein constructs, comprising the full length protein or the catalytic domain alone; made in house; host or cells: HEK293 cells (pEBG-2T-PDK1 mutant)
T2 sequence (O15530 1-556 T148V): T1 sequence (O15530 1-556 Q150A) with T148V, A150Q
Nature of the experiment: PDK1 activity assay with T308tide. In kind it is biochemical. As to conditions: for activation of PDK1 mutant (in words): PDK1[Thr148Val], 20 μM. Here is the method: as §1, §2, §3

In general, AC50 refers to the concentration at which the activity in the assay is half-maximal.

In the case of `O=C(O)CSC(CC(=O)c1ccc(Cl)cc1)c1ccccc1` (centres unmarked) [Compound 1], the concentration at half-maximal activity (AC50) in experiment [1] turned out to be 55 ± 9 µM; in experiment [2] (GST-PDK1 [Thr148Val], read-out: AC50), 102 ± 19 µM. Besides, the Max. activity in experiment [1] is 1.12 ± 0.06 U/mg; in experiment [2] (GST-PDK1 [Thr148Val]), 2.44 ± 0.26 U/mg. Besides, the “activation of PDK1 mutant (in words)” value in experiment [1] and in experiment [2] was “still activated” in each case.

In the case of “P-HM-RSK: phosphorylated HM polypeptide of RSK: KGAGGGGFRGFS(P)FVA (KGAGGGGFRGF[pS]FVA)”, the “activation of PDK1 mutant (in words)” value in experiment [1] and in experiment [2] was “completely abolished” throughout.

Turning to “REPRILSEEEQEMFRDFDYIADWC [PIFtide, reference compound]”, the figures for the half-maximal activity concentration (AC50) in experiment [1] and in experiment [2] (GST-PDK1 [Thr148Val]) were 0.5 ± 0.06 µM and “INH”, respectively. In experiment [1], this compound displayed a Max. activity of 1.55 ± 0.06 U/mg.
